Several values for one entry are separate records, joined by “and”; a condition that tells them apart may be missing. Equal entries are not always repeated. Where two headings read alike, the source gives them in different places.
Columns and labels:
[1] = tested on: IL-6; experiment: IL-6 expression in HaCaT cells stimulated with IL-17A and TNFα (ELISA); type: cell-based, human; conditions: for Expression of IL-6, HaCaT: 10 μM solutions, HaCaT stimulated with IL-17A and TNFα, mean of five experiments in duplicate; for inhibitory effect on IL-6 expression in HaCaT cells: 10 μM, stimulated with IL-17A and TNFα; for inhibitory effect on IL-6 expression in HaCaT cells / effect on the expression of IL-6 by HaCaT cells: in words; for effect on the expression of IL-6 by HaCaT cells: HaCaT cells treated with IL-17 and TNFα
Excerpt: The effect of compounds 3a-b, 4a-e, 5a-e and 6a-e on the expression of IL-6 was subsequently assessed using the HaCaT spontaneously transformed aneuploid immortal keratinocyte cell line, stimulated by the addition of IL-17A and TNFα in the culture medium (Table 1). Curcumin and ibuprofen were used as known IL-6 expression inhibitors. DMSO was used for solubilizing the drugs. […] Indeed, the inhibitory effect of these molecules was at least equivalent to that of curcumin [27] and ibuprofen, both recognized as anti-inflammatory drugs. The inhibitory effect of the substituted phenyl cycloalkylureas in accordance with an embodiment of the present disclosure on proinflammatory cytokines was also found at the mRNA level. Indeed, the mRNAs of the cytokines IL-6 and TNF-α as well as the mRNA of the chemokine IL-8 were lowered in TNF-α/IL-17A-stimulated HaCaT cells. Similar results were obtained in THP-1 cells stimulated with LPS where treatments with CHEU and 4e diminished the mRNA levels of the cytokines IL-1B, IL-6 and TNF-α in addition to the mRNA levels of the chemokine IL-8. It is surmised that the anti-inflammatory mechanism of action of the compounds of the present disclosure is likely mediated, at least in part, by modulating the phosphorylation state of the MAP kinase p38. […] Addition of a compound in accordance with an embodiment of the present disclosure, prior to stimulation with the aforementioned cytokines, decreases the level of p-p38 at 30-60 minutes post-stimulation. This diminution in p-p38 levels destabilizes the mRNAs of pro-inflammatory cytokines, non-limiting examples of which include TNF-α and IL-6. Moreover, it is surmised that the effect of the compounds of the present disclosure on p-p38 is potentially mediated by the activation of the phosphatase named DUSP1.
HaCaT cells (1×10^5) were suspended in DMEM culture media (500 μL) and incubated for 24 h in 24-well microtiter plates at 37° C. in a moisture-saturated atmosphere containing 5% CO2. Compounds were solubilized in DMSO and diluted in fresh DMEM. The compound (500 μL) was then added to the cell medium to obtain a final concentration of […] and the cells incubated over a period of 1 hour. In the meantime, IL-17α (200 ng/mL) and TNFα (20 ng/mL) (PeproTech, Rocky Hill, N.J.) were added to the drug solution in DMEM. Following the initial incubation of the cells, the culture medium was aspirated from each well and the IL-17α+ TNFα+ compound solution was added to each well for incubation (6 hours). The culture media was then removed and transferred to a clean tube (1.5 mL) at −80° C. until the ELISA test was performed. The presence of IL-6 in the cell media was determined using an IL-6 human Duoset ELISA kit (Fisher Scientific, Ottawa, On.) according to the manufacturer's instructions. Standards and samples were prepared and assessed in duplicate. Two separate replicates were performed for each sample. The absorbance was measured at 450 nm and 540 nm using a TECAN infinite M1000 plate reader.

[2] = tested on: HaCaT cells; experiment: Cell cycle analysis by flow cytometry; type: cell-based, human; conditions: for Cell cycle progression G0-G1 / Cell cycle progression G2-M / Cell cycle progression S: 10 μM, 24 h; for effect on cell cycle progression: in words
Protocol: The effect of compounds 3a-b, 4e, 5b-c, 6a and 6e on cell cycle progression was subsequently assessed using a flow cytometer in accordance with established experimental protocols to evaluate any potential drug toxicity at specific phases of the cell cycle (Table 3).
HaCaT cells (2.5×10^5) were incubated with compounds 3a-b, 4e, 5b-c, 6a and 6e and curcumin (10 μM) over a period of 24 h. The cells were subsequently trypsinized, washed with PBS, resuspended in PBS (250 μL), fixed by the addition of ice-cold EtOH (750 μL) under agitation and stored at −20° C. until analysis. Prior to FACS analysis, cells were washed with PBS and resuspended in PBS (500 μL) containing 4′,6′-diamidino-2-phenylindole (DAPI) (2 μg/mL). The cell cycle was analyzed using an LSR II flow cytometer (BD Biosciences, Franklin Lakes, N.J.).

[3] = tested on: A549 adenocarcinoma alveolar epithelial cancer cells; experiment: Antiproliferative activity (NCI procedure, sulforhodamine B), A549; type: cell-based, human; conditions: 48 h; for GI50: Table 2; for IC50: Table 6, unit inferred, tested 781 nM to 100 μM
Method in brief: (§1)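 Cells seeded in DMEM, grown 24 h at 37 °C, then exposed 48 h to serial dilutions from 100 μM to 781 nM (DMSO <0.5%). TCA fixation, sulforhodamine B staining, absorbance at 530-568 nm; growth inhibition relative to plates fixed on treatment day. At least two experiments in triplicate.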

[4] = tested on: HaCaT keratinocyte cell line; experiment: Antiproliferative activity (NCI procedure, sulforhodamine B), HaCaT; type: cell-based, human; conditions: 48 h; for GI50: Table 2; for IC50: Table 6, unit inferred, tested 781 nM to 100 μM
Method in brief: as §1

[5] = tested on: HDFn neonatal dermal fibroblast cell line; experiment: Antiproliferative activity (NCI procedure, sulforhodamine B), HDFn; type: cell-based, human; conditions: 48 h; for GI50: Table 2; for IC50: Table 6, unit inferred, tested 781 nM to 100 μM
Method in brief: as §1

[6] = tested on: HT-29 colon adenocarcinoma cells; experiment: Antiproliferative activity (NCI procedure, sulforhodamine B), HT-29; type: cell-based, human; conditions: 48 h; for GI50: Table 2; for IC50: Table 6, unit inferred, tested 781 nM to 100 μM
Method in brief: as §1

[7] = tested on: mRNAs of IL-1B, IL-6, TNF-α and IL-8; experiment: mRNA levels of cytokines in THP-1 cells stimulated with LPS; type: cell-based; conditions: in words
Excerpt: The effect of compounds 3a-b, 4a-e, 5a-e and 6a-e on the expression of IL-6 was subsequently assessed using the HaCaT spontaneously transformed aneuploid immortal keratinocyte cell line, stimulated by the addition of IL-17A and TNFα in the culture medium (Table 1). Curcumin and ibuprofen were used as known IL-6 expression inhibitors. DMSO was used for solubilizing the drugs. […] Indeed, the inhibitory effect of these molecules was at least equivalent to that of curcumin [27] and ibuprofen, both recognized as anti-inflammatory drugs. The inhibitory effect of the substituted phenyl cycloalkylureas in accordance with an embodiment of the present disclosure on proinflammatory cytokines was also found at the mRNA level. Indeed, the mRNAs of the cytokines IL-6 and TNF-α as well as the mRNA of the chemokine IL-8 were lowered in TNF-α/IL-17A-stimulated HaCaT cells. Similar results were obtained in THP-1 cells stimulated with LPS where treatments with CHEU and 4e diminished the mRNA levels of the cytokines IL-1B, IL-6 and TNF-α in addition to the mRNA levels of the chemokine IL-8. It is surmised that the anti-inflammatory mechanism of action of the compounds of the present disclosure is likely mediated, at least in part, by modulating the phosphorylation state of the MAP kinase p38. […]

[8] = tested on: IL-6; experiment: IL-6 expression in HaCaT cells stimulated with IL-17A and TNFα (ELISA); type: cell-based; conditions: Homo sapiens, read-out: Reduction IL-6 (%)
[9] = tested on: cancer cell lines; conditions: background, refs [4, 5]; in words; cited from earlier work

Structure (SMILES)	melting point	Expression of IL-6, HaCaT [1] [pg/mL]	Cell cycle progression G0-G1 [2]	Cell cycle progression G2-M [2]	Cell cycle progression S [2]	GI50 ([3]; Homo sapiens, A549) [µM]	IC50 ([3]; Homo sapiens, A549) [µM]	GI50 ([4]; Homo sapiens, HaCaT) [µM]	IC50 ([4]; Homo sapiens, HaCaT) [µM]	GI50 ([5]; Homo sapiens, Fibroblast) [µM]	IC50 ([5]; Homo sapiens, Fibroblast) [µM]	GI50 ([6]; Homo sapiens, HT-29) [µM]	IC50 ([6]; Homo sapiens, HT-29) [µM]	effect on cell cycle progression [2]	further results
O=C(Nc1ccc(C2CCCCC2)cc1)NC1CC1 [Compound 54, 1-(4-Cyclohexylphenyl)-3-cyclopropylurea]	173 to 176 °C	29.2 ± 3.5	47.7	28.1	24.2	48	48	74	74	40	40	54	54	did not affect the cell cycle progression	mRNA levels of the cytokines IL-1B, IL-6 and TNF-α and of the chemokine IL-8 [7]: diminished
CCNC(=O)Nc1ccc(C(C)(C)C)cc1 [Compound 63, 1-(4-(t-Butyl)phenyl)-3-ethylurea]	136 to 139 °C	81.9 ± 10.8	–	–	–	69	69	> 100	≥ 100	60	60	75	75	–	Cell cycle progression G0-G1 ([2]; listed as 3a): 44; Cell cycle progression G2-M ([2]; listed as 3a): 31; Cell cycle progression S ([2]; listed as 3a): 25.1
COc1cc(/C=C/C(=O)CC(=O)/C=C/c2ccc(O)c(OC)c2)ccc1O [Curcumin, reference compound]	–	62.8 ± 12.0	14.8	77.1	8.1	9.9	–	7	–	7.6	–	4.2	–	clearly arresting the cell cycle progression in the G2-M phase	–
C[C@@H]1C[C@H]2[C@@H]3CCC4=CC(=O)C=C[C@]4(C)[C@@]3(F)[C@@H](O)C[C@]2(C)[C@@]1(O)C(=O)CO [Dexamethasone]	–	–	–	–	–	–	–	–	–	–	–	–	–	–	inhibition at 1 µM ([8]; Table 6, HaCaT stimulated with IL-17A and TNFα): 45.3%; inhibition at 1 µM ([8]; Table 8, HaCaT stimulated with IL-17A and TNFα): 54.5%
CC(C)Cc1ccc(C(C)C(=O)O)cc1 (centres unmarked) [Ibuprofen, reference compound]	–	120.3 ± 18.6	57.9	16.3	25.6	> 100	–	> 100	–	> 100	–	> 100	–	–	–
O=C(NCCCl)Nc1ccc(C2CCCCC2)cc1 [cHCEU, 1-(2-chloroethyl)-3-(p-cyclohexylphenyl)urea, reference compound]	–	46.8 ± 8.5	56.5	19.1	24.4	12	–	27	–	11	–	15	–	–	effect on the expression of IL-6 by HaCaT cells [1]: significant decrease; antiproliferative activity on numerous cancer cell lines [9]: potent antiproliferative activity
CC(C)(C)c1ccc(NC(=O)NCCCl)cc1 [tBCEU, reference compound]	–	130.6 ± 15.6	57.3	15.6	26.8	–	–	–	–	–	–	–	–	arresting the cell cycle progression in the G2-M phase	effect on the expression of IL-6 by HaCaT cells [1]: significant decrease; GI50 [3]: 6.9 µM; GI50 [4]: 12 µM; GI50 [5]: 11 µM; GI50 [6]: 6.5 µM; antiproliferative activity on numerous cancer cell lines [9]: potent antiproliferative activity

Continued, in another order:

melting point	Structure (SMILES)	Expression of IL-6, HaCaT [1] [pg/mL]	Cell cycle progression G0-G1 [2]	Cell cycle progression G2-M [2]	Cell cycle progression S [2]	GI50 ([3]; Homo sapiens, A549) [µM]	IC50 ([3]; Homo sapiens, A549) [µM]	GI50 ([4]; Homo sapiens, HaCaT) [µM]	IC50 ([4]; Homo sapiens, HaCaT) [µM]	GI50 ([5]; Homo sapiens, Fibroblast) [µM]	IC50 ([5]; Homo sapiens, Fibroblast) [µM]	GI50 ([6]; Homo sapiens, HT-29) [µM]	IC50 ([6]; Homo sapiens, HT-29) [µM]	effect on cell cycle progression [2]	further results
159 to 160 °C	O=C(NCC1CCC1)Nc1ccc(I)cc1 [Compound 23, 1-(Cyclobutylmethyl)-3-(4-iodophenyl)urea]	33.9 ± 4.3	45	29.4	25.6	27	27	62	62	74	74	29	29	–	inhibitory effect on IL-6 expression in HaCaT cells [1]: significant inhibitory effect
218 to 223 °C and 219 to 221 °C	CC(C)(C)c1ccc(NC(=O)NC2CCCC2)cc1 [Compound 31, 1-(4-(t-Butyl)phenyl)-3-cyclopentylurea]	127.5 ± 17.3	48	25.8	25.1	83	83	> 100	≥ 100	> 100	≥ 100	> 100	≥ 100	did not affect the cell cycle progression	–
126 to 127 °C	CC(C)(C)c1cccc(NC(=O)NCC2CCC2)c1 [Compound 47, 1-(3-(t-Butyl)phenyl)-3-(cyclobutylmethyl)urea]	47.5 ± 3.3	46.1	30.4	23.5	37	37	39	39	21	21	43	43	–	inhibitory effect on IL-6 expression in HaCaT cells [1]: significant inhibitory effect
197 to 199 °C	O=C(Nc1ccc(C2CCCCC2)cc1)NC1CCCC1 [Compound 58, 1-(4-Cyclohexylphenyl)-3-cyclopentylurea]	50.3 ± 4.7	50.1	25.2	24.7	11	11	82	82	56	56	13	13	did not affect the cell cycle progression	inhibitory effect on IL-6 expression in HaCaT cells [1]: significant inhibitory effect

From patent US20210163404A1, “NOVEL UREA COMPOUNDS AND BIOISOSTERES THEREOF AND THEIR USE FOR TREATING INFLAMMATION AND INFLAMMATION-RELATED PATHOLOGIES” (UNIVERSITÉ LAVAL, priority 2017, published 2021)
